Where “and” joins values, the source holds several entries; their conditions need not be identical. Identical values can stand only once.
Target: human PD-L1 (Homo sapiens (Human), UniProt Q9NZQ7)
Experiment: T cell activation luciferase reporter cell culture system (T Cell Activation Assay)
Type: cell-based
Settings: luciferase reporter assay; PD-L1 aAPC/CHO-K1 cells with PD-1 effector Jurkat T cells

human PD-L1, sequence (Q9NZQ7 19-290): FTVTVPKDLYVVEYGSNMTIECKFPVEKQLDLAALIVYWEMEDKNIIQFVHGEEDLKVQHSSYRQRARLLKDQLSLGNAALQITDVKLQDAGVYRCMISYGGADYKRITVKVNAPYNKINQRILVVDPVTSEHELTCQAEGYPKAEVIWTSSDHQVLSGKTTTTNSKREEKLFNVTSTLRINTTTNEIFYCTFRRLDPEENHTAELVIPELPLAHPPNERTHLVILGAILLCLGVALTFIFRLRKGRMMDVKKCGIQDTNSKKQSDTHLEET

EC50 | Structure (SMILES)
399 nM | COc1cc(-c2nccc(-c3cccc(-c4ccc(CNC[C@@H]5CCC(=O)N5)c(OC)n4)c3Cl)c2Cl)cc2c1CN(CC(O)C(C)C)CC2 (stereo partly drawn) [Cmpd 53, (5S)-5-((((6-(2-chloro-3-(3-chloro-2-(2-(2-hydroxy-3-methylbutyl)-8-methoxy-1,2,3,4-tetrahydroisoquinolin-6-yl)pyridin-4-yl)phenyl)-2-methoxypyridin-3-yl)methyl)amino)methyl)pyrrolidin-2-one]
24.3 nM and 21.5 nM | COc1cc(-c2nccc(-c3cccc(-c4ccc(CNC[C@@H]5CCC(=O)N5)c(OC)n4)c3Cl)c2Cl)cc2c1CN(CCO)CC2 [Cmpd 54, (S)-5-((((6-(2-chloro-3-(3-chloro-2-(2-(2-hydroxyethyl)-8-methoxy-1,2,3,4-tetrahydroisoquinolin-6-yl)pyridin-4-yl)phenyl)-2-methoxypyridin-3-yl)methyl)amino)methyl)pyrrolidin-2-one]
19.8 nM | COc1cc(-c2nccc(-c3cccc(-c4ccc5c(CNC6CCN(C(C)=O)CC6)cn(C)c5n4)c3Cl)c2Cl)ccc1CNC[C@@H]1CCC(=O)N1 [Cmpd 57, (S)-5-(((4-(4-(3-(3-(((1-acetylpiperidin-4-yl)amino)methyl)-1-methyl-1H-pyrrolo[2,3-b]pyridin-6-yl)-2-chlorophenyl)-3-chloropyridin-2-yl)-2-methoxybenzyl)amino)methyl)pyrrolidin-2-one]
37.3 nM | COc1cc(-c2nccc(-c3cccc(-c4ccc5c(CNC[C@@H]6CCO6)cn(C)c5n4)c3Cl)c2Cl)ccc1CNC[C@@H]1CCC(=O)N1 [Cmpd 58, (S)-5-(((4-(3-chloro-4-(2-chloro-3-(1-methyl-3-(((((S)-oxetan-2-yl)methyl)amino)methyl)-1H-pyrrolo[2,3-b]pyridin-6-yl)phenyl)pyridin-2-yl)-2-methoxybenzyl)amino)methyl)pyrrolidin-2-one]
50.8 nM | COc1cc(-c2nccc(-c3cccc(-c4ccc5c(CNC6CCOCC6)cn(C)c5n4)c3Cl)c2Cl)ccc1CNC[C@@H]1CCC(=O)N1 [Cmpd 59, (S)-5-(((4-(3-chloro-4-(2-chloro-3-(1-methyl-3-(((tetrahydro-2H-pyran-4-yl)amino)methyl)-1H-pyrrolo[2,3-b]pyridin-6-yl)phenyl)pyridin-2-yl)-2-methoxybenzyl)amino)methyl)pyrrolidin-2-one]
44.6 nM | COc1cc(-c2nccc(-c3cccc(-c4ccc5c(CNC6CCS(=O)(=O)CC6)cn(C)c5n4)c3Cl)c2Cl)ccc1CNC[C@@H]1CCC(=O)N1 [Cmpd 60, (S)-5-(((4-(3-chloro-4-(2-chloro-3-(3-(((1,1-dioxidotetrahydro-2H-thiopyran-4-yl)amino)methyl)-1-methyl-1H-pyrrolo[2,3-b]pyridin-6-yl)phenyl)pyridin-2-yl)-2-methoxybenzyl)amino)methyl)pyrrolidin-2-one]
75.5 nM | COc1nc(-c2cccc(-c3ccnc(-c4cc(F)c5c(c4)CCN(C[C@@H]4CCC(=O)N4)C5)c3Cl)c2Cl)ccc1CNC[C@@H]1CCC(=O)N1 [Cmpd 61, (S)-5-((((6-(2-chloro-3-(3-chloro-2-(8-fluoro-2-(((S)-5-oxopyrrolidin-2-yl)methyl)-1,2,3,4-tetrahydroisoquinolin-6-yl)pyridin-4-yl)phenyl)-2-methoxypyridin-3-yl)methyl)amino)methyl)pyrrolidin-2-one]
27 nM | COc1cc(-c2nccc(-c3cccc(-c4ccc(CNC[C@@H]5CCC(=O)N5)c(OC)n4)c3Cl)c2Cl)cc2c1CN(CC1CCN(C(C)=O)CC1)CC2 [Cmpd 62, (S)-5-((((6-(3-(2-(2-((1-acetylpiperidin-4-yl)methyl)-8-methoxy-1,2,3,4-tetrahydroisoquinolin-6-yl)-3-chloropyridin-4-yl)-2-chlorophenyl)-2-methoxypyridin-3-yl)methyl)amino)methyl)pyrrolidin-2-one]
40.8 nM | COc1cc(-c2nccc(-c3cccc(-c4ccc(CNC[C@@H]5CCC(=O)N5)c(OC)n4)c3Cl)c2Cl)cc2c1CN(CCCF)CC2 [Cmpd 63, (S)-5-((((6-(2-chloro-3-(3-chloro-2-(2-(3-fluoropropyl)-8-methoxy-1,2,3,4-tetrahydroisoquinolin-6-yl)pyridin-4-yl)phenyl)-2-methoxypyridin-3-yl)methyl)amino)methyl)pyrrolidin-2-one]
71.9 nM | COc1cc(-c2nccc(-c3cccc(-c4ccc(CNC[C@@H]5CCC(=O)N5)c(OC)n4)c3Cl)c2Cl)cc2c1CN(CCC1CCNCC1)CC2 [Cmpd 64, (S)-5-((((6-(2-chloro-3-(3-chloro-2-(8-methoxy-2-(2-(piperidin-4-yl)ethyl)-1,2,3,4-tetrahydroisoquinolin-6-yl)pyridin-4-yl)phenyl)-2-methoxypyridin-3-yl)methyl)amino)methyl)pyrrolidin-2-one]
194 nM | COc1nc(-c2cccc(-c3ccnc(-c4cc(F)c5c(c4)CCN(CCCF)C5)c3Cl)c2Cl)ccc1CNC[C@@H]1CCC(=O)N1 [Cmpd 65, (S)-5-((((6-(2-chloro-3-(3-chloro-2-(8-fluoro-2-(3-fluoropropyl)-1,2,3,4-tetrahydroisoquinolin-6-yl)pyridin-4-yl)phenyl)-2-methoxypyridin-3-yl)methyl)amino)methyl)pyrrolidin-2-one]
101 nM | COc1nc(-c2cccc(-c3ccnc(-c4cc(Cl)c5c(c4)CCN(C[C@@H]4CCC(=O)N4)C5)c3Cl)c2Cl)ccc1CNC[C@@H]1CCC(=O)N1 [Cmpd 67, (S)-5-((((6-(2-chloro-3-(3-chloro-2-(8-chloro-2-(((S)-5-oxopyrrolidin-2-yl)methyl)-1,2,3,4-tetrahydroisoquinolin-6-yl)pyridin-4-yl)phenyl)-2-methoxypyridin-3-yl)methyl)amino)methyl)pyrrolidin-2-one]
413 nM | COc1cc(-c2nccc(-c3cccc(-c4ccc(CNC[C@@H]5CCC(=O)N5)c(OC)n4)c3Cl)c2Cl)ccc1CN1CCC[C@H]1C(=O)OC(C)C [Cmpd 68, isopropyl (4-(3-chloro-4-(2-chloro-3-(6-methoxy-5-(((((S)-5-oxopyrrolidin-2-yl)methyl)amino)methyl)pyridin-2-yl)phenyl)pyridin-2-yl)-2-methoxybenzyl)-L-prolinate]
56.6 nM | COc1nc(-c2cccc(-c3ccnc(-c4cc(Cl)c5c(c4)CCN(C[C@H](C)O)C5)c3Cl)c2Cl)ccc1CNC[C@@H]1CCC(=O)N1 [Cmpd 69, (S)-5-((((6-(2-chloro-3-(3-chloro-2-(8-chloro-2-((S)-2-hydroxypropyl)-1,2,3,4-tetrahydroisoquinolin-6-yl)pyridin-4-yl)phenyl)-2-methoxypyridin-3-yl)methyl)amino)methyl)pyrrolidin-2-one]
49.4 nM | COc1cc(-c2nccc(-c3cccc(-c4ccc(CNC[C@@H]5CCC(=O)N5)c(OC)n4)c3Cl)c2Cl)ccc1CNCCO [Cmpd 70, (S)-5-((((6-(2-chloro-3-(3-chloro-2-(4-(((2-hydroxyethyl)amino)methyl)-3-methoxyphenyl)pyridin-4-yl)phenyl)-2-methoxypyridin-3-yl)methyl)amino)methyl)pyrrolidin-2-one]
30.6 nM | COc1cc(-c2nccc(-c3cccc(-c4cc(Cl)c(CNC[C@@H]5CCC(=O)N5)c(OC)n4)c3Cl)c2Cl)ccc1CN(C)C[C@H](C)O [Cmpd 71, (S)-5-((((4-chloro-6-(2-chloro-3-(3-chloro-2-(4-((((S)-2-hydroxypropyl)(methyl)amino)methyl)-3-methoxyphenyl)pyridin-4-yl)phenyl)-2-methoxypyridin-3-yl)methyl)amino)methyl)pyrrolidin-2-one]
392 nM | COc1nc(-c2cccc(-c3ccnc(-c4cc(Cl)c5c(c4)CCN(CCCF)C5)c3Cl)c2Cl)ccc1CNC[C@@H]1CCC(=O)N1 [Cmpd 72, (S)-5-((((6-(2-chloro-3-(3-chloro-2-(8-chloro-2-(3-fluoropropyl)-1,2,3,4-tetrahydroisoquinolin-6-yl)pyridin-4-yl)phenyl)-2-methoxypyridin-3-yl)methyl)amino)methyl)pyrrolidin-2-one]
70 nM | COc1cc(-c2nccc(-c3cccc(-c4ccc(CNC[C@@H]5CCC(=O)N5)c(OC)n4)c3Cl)c2Cl)cc2c1CN(CCC1(O)CC1)CC2 [Cmpd 74, (S)-5-((((6-(2-chloro-3-(3-chloro-2-(2-(2-(1-hydroxycyclopropyl)ethyl)-8-methoxy-1,2,3,4-tetrahydroisoquinolin-6-yl)pyridin-4-yl)phenyl)-2-methoxypyridin-3-yl)methyl)amino)methyl)pyrrolidin-2-one]
16 nM | COc1cc(-c2nccc(-c3cccc(-c4ccc(CNC[C@@H]5CCC(=O)N5)c(OC)n4)c3Cl)c2Cl)ccc1CN(C)C[C@H](C)O [Cmpd 75, (S)-5-((((6-(2-chloro-3-(3-chloro-2-(4-((((S)-2-hydroxypropyl)(methyl)amino)methyl)-3-methoxyphenyl)pyridin-4-yl)phenyl)-2-methoxypyridin-3-yl)methyl)amino)methyl)pyrrolidin-2-one]
89.7 nM | COc1cc(-c2nccc(-c3cccc(-c4ccc(CNC[C@@H]5CCC(=O)N5)c(OC)n4)c3Cl)c2Cl)ccc1CN1CC[C@H](C(=O)OC(C)C)C1 [Cmpd 76, isopropyl (S)-1-(4-(3-chloro-4-(2-chloro-3-(6-methoxy-5-(((((S)-5-oxopyrrolidin-2-yl)methyl)amino)methyl)pyridin-2-yl)phenyl)pyridin-2-yl)-2-methoxybenzyl)pyrrolidine-3-carboxylate]
105 nM | COc1cc(-c2nccc(-c3cccc(-c4ccc(CNC[C@@H]5CCC(=O)N5)c(OC)n4)c3Cl)c2Cl)ccc1CN1CC[C@H](C(=O)O)C1 [Cmpd 77, (S)-1-(4-(3-chloro-4-(2-chloro-3-(6-methoxy-5-(((((S)-5-oxopyrrolidin-2-yl)methyl)amino)methyl)pyridin-2-yl)phenyl)pyridin-2-yl)-2-methoxybenzyl)pyrrolidine-3-carboxylic acid]
205 nM | COc1cc(-c2nccc(-c3cccc(-c4ccc(CNC[C@@H]5CCC(=O)N5)c(OC)n4)c3Cl)c2Cl)ccc1CN1CCC[C@H]1C(=O)O [Cmpd 78, (4-(3-chloro-4-(2-chloro-3-(6-methoxy-5-(((((S)-5-oxopyrrolidin-2-yl)methyl)amino)methyl)pyridin-2-yl)phenyl)pyridin-2-yl)-2-methoxybenzyl)-L-proline]
50.6 nM | COc1cc(-c2nccc(-c3cccc(-c4ccc(CNC[C@@H]5CCC(=O)N5)c(OC)n4)c3Cl)c2Cl)cc(F)c1CN[C@H]1C[C@](C)(O)C1 [Cmpd 79]

Source: patent US20240246964A1 (Arbutus Biopharma Corporation, priority 2021, published 2024)
